The conditions of this data set: 298.15 K, 101.33 kPa, Liquid; for viscosity: Capillary tube (Ostwald / Ubbelohde) method; for speed of sound: Sing-around technique in a fixed-path interferometer; for mass density: Vibrating tube method.

Here are results for two compounds from the NIST ThermoML archive (doi:10.1021/je300742t).

Molecules are shown by their SMILES. Numbers after ± are expanded uncertainties.

A word on the viscosity: it is the resistance of a fluid to flow. Usually speed of sound stands for how fast a sound wave travels through the sample. A word on the mass density: it is the mass of a sample divided by its volume. As to `NCCO` [2-aminoethan-1-ol], the viscosity stood at 18.74 ± 0.13 mPa·s, the speed of sound was determined as 1719.2 ± 1.7 m/s and the mass density is 1011.98 ± 0.3 kg/m3.

Turning to `CN1CCCC1=O` [N-methylpyrrolidone], the viscosity stood at 1.681 ± 0.013 mPa·s, the speed of sound turned out to be 1545.2 ± 1.7 m/s and the mass density amounted to 1028.3 ± 0.31 kg/m3.
